Earlier results in patent publication US20260206743A1, “PROPINEB NANOSUSPENSION” (priority 2022, published 2026).
Where two headings read alike, the source gives them in different places.

poly [1,2-propylene bis(dithiocarbamate)] zinc [Propineb]
Solubility in water (20° C.): < 10 µg/mL | Solubility in organic solvent (DMF+DMSO mixture): exceed 200 g/L | Solubility in organic solvent (dichloromethane): < 100 µg/mL | Solubility in organic solvent (hexane): < 100 µg/mL | Solubility in organic solvent (toluene): < 100 µg/mL
